Assay results: patent US7452865B2, “Antagonistic analogs of GH RH (2003)” (The Administrare's of the Tulane Educational Fund, priority 2004, dated 2008)
Marks after values point to notes of the source that are not given here.

Experiments:
[1] = test system: PC-3 human prostate cancer xenografts; assay: PC-3 xenografts in nude mice, Experiment 4: tumor growth; assay type: in vivo; conditions: for Tumor volume (mm^3) Final / Tumor volume doubling time / Tumor weight / Tumor volume Final (% inhibition) / Tumor weight (% inhibition): 5 μg/day s.c., 28 days; for Tumor volume Final (% inhibition) / Tumor weight (% inhibition): vs control; for Tumor volume (mm^3) Initial: at start of treatment
Experimental: (§1) Male nude mice were implanted s.c. with 3 mm^3 pieces of PC-3 human hormone-independent prostate cancer tissue on both flanks. When tumors reached a volume of approximately 65 mm^3, the mice were divided into 7 experimental groups with 8 to 9 animals in each group and received single daily injections for 28 days as follows: 1. Control (vehicle solution); 2. JV-1-38 (10 μg/day s.c.); 3. Peptide 35 (10 μg/day s.c.); 4. Peptide 36 (10 μg/day s.c.); 5. Peptide 37 (10 μd/day s.c.); 6. Peptide 39 (10 μg/day s.c.); 7. Peptide 41 (10 μg/day s.c.). Tumor volumes were measured twice a week. The experiment was ended on day 28 by sacrificing the mice under Isofurane anesthesia. Resulting tumors were cleaned, weighed, and snapfrozen until further analyses. Trunk blood was collected from the abdominal aorta and serum was separated for RIA measurement of IGF-I. Statistical analyses of the measurement results were done by ANOVA followed by Fisher test; data are presented as the means±S.E.
(§2) All experimental details of Experiment 4 are the same as for Experiment 3, with the following difference. When tumors reached a volume of approximately 55 mm^3, the mice were divided into 5 experimental groups with 8 to 9 animals in each group and received single daily injections for 28 days as follows: 1. Control (vehicle solution); 2. Peptide 80 (5 μg/day s.c.); 3. Peptide 86 (5 μg/day s.c.); 4. Peptide 95 (5 μg/day s.c.); 5. Peptide 96 (5 μg/day s.c.). Further details of Experiment 4 are the same as for Experiment 3.

[2] = test system: IGF-I; assay: PC-3 xenografts, Experiment 4: serum IGF-I (RIA); assay type: in vivo, nude mice; conditions: 5 μg/day s.c., 28 days; for Serum IGF-I (% inhibition): vs control
Excerpt: For the measurement of GH and IGF-I levels in the serum, as well as IGF-I and IGF-II concentrations in the cytosol fraction of tumors, blood samples and tumor samples were collected and processed as described (Braczkowski R, Schally A V, Plonowski A, Varga J L, Groot K, Krupa M, Armatis P, Cancer 95: 1735-1745, 2002), hereby incorporated by reference. Briefly, blood samples are centrifuged to separate the serum, tumors are homogenized and centrifuged to separate the cytosol fraction. Serum GH is then measured by the double-antibody RIA method. Before measurement by RIA, IGF-I and IGF-II are extracted from serum and cytosol fractions using an acid-ethanol cryoprecipitation method that eliminates most of the IGF binding proteins, which can interfere with the RIA. IGF-I concentration is measured by RIA using IGF-I as a standard and goat anti-IGF-I antibody (both from DSL Inc., Webster, Tex.). IGF-II concentration is measured by RIA using human recombinant IGF-II (Bachem) as a standard and anti-IGF-II monoclonal antibody (Amano International Enzyme, Troy, Va.).
as §1, §2

[3] = test system: GH-RH receptor isoforms on membrane fractions of human PC-3 prostate tumors; assay type: binding; conditions: general statement
Procedure, shortened: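 Competitive displacement of [^125I]JV-1-42 from crude membranes of human PC-3 prostate tumours grown as nude-mouse xenografts, with unlabelled peptides at 10^−12 to 10^−6 M. Bound radioactivity in the centrifuged pellet gamma-counted; Ki from Munson–Rodbard analysis. Relative affinity = Ki of reference peptide (JV-1-36 or JV-1-38) / Ki of test antagonist.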

Substance	Tumor volume (mm^3) Final [1]	Tumor volume doubling time [1] [days]	Tumor weight [1] [mg]	Tumor volume Final (% inhibition) [1] [%]	Tumor weight (% inhibition) [1] [%]	Tumor volume (mm^3) Initial [1] [mm^3]	Serum IGF-I [2] [ng/mL]	Serum IGF-I (% inhibition) [2] [%]	binding affinities to the tumoral receptors for GH-RH (in words) [3]
[CH3(CH2)6CO-Tyr^1, D-Arg^2, Phe(pCl)^6, Ala^8, His^9, Tyr(Et)^10, His^11, Abu^15, His^20, Nle^27, D-Arg^28, Har^29]hGH-RH(1-29)NH2 [Peptide 86]	397 ± 71.8* mm^3	12.1 ± 1.40	643 ± 94.9	68	56	56.1 ± 8.67	118 ± 8.94	28	extremely high binding affinities
[CH3(CH2)6CO-Tyr^1, D-Arg^2, Phe(pCl)^6, Ala^8, His^9, Tyr(Et)^10, His^11, Orn^12, Abu^15, Orn^21, Nle^27, D-Arg^28, Har^29]hGH-RH(1-29)NH2 [Peptide 95]	393 ± 79.8* mm^3	12.5 ± 1.80	666 ± 131	69	54	60.9 ± 12.2	127 ± 17.5	23	extremely high binding affinities
